According to paper PMC8569681, “New Pyrimidine and Pyridine Derivatives as Multitarget Cholinesterase Inhibitors: Design, Synthesis, and In Vitro and In Cellulo Evaluation” (ACS Chemical Neuroscience, 2021):

Tests used:
[1] = molecular target: T1, Aβ42 peptide (Homo sapiens, UniProt P05067); test: Inhibition of Aβ42 aggregation in intact E. coli cells, thioflavin-S; type: cell-based, Escherichia coli; settings: [I] = 100 μM
T1 construct: expressed in transfected cells; host or cells: E. coli BL21 (DE3), pET28a
T1 sequence (P05067 672-713 limits assumed): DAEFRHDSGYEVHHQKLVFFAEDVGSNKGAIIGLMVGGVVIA
Procedure: (§1) The anti-aggregating effect of the tested compounds was monitored by a cell-based assay in intact Escherichia coli cells that overexpress either the Aβ42 peptide or tau protein, which upon overexpression form insoluble inclusion bodies that were stained with thioflavin-S, an amyloid specific dye.[36] The percentages of inhibition toward Aβ42 and tau aggregation were determined at an inhibitor concentration of 100 μM, and the obtained results are reported in Table 7.
E. coli competent cells BL21 (DE3) were transformed with the pET28a vector (Novagen, Inc., Madison, WI, USA) carrying the DNA sequence of Aβ42. Because of the addition of the initiation codon ATG in front of both genes, the overexpressed peptide contains an additional methionine residue at its N terminus. For overnight culture preparation, an amount of 10 mL of the M9 minimal medium containing 50 μg·mL^–1 of kanamycin was inoculated with a colony of BL21 (DE3) bearing the plasmid to be expressed at 37 °C. For expression of the Aβ42 peptide, the required volume of overnight culture to obtain 1:500 dilution was added into the fresh M9 minimal medium containing 50 μg·mL^–1 of kanamycin and 250 μM Th-S. The bacterial culture was grown at 37 °C and 250 rpm. When the cell density reached OD600 = 0.6, an amount of 980 μL of culture was transferred into Eppendorf tubes of 1.5 mL with 10 μL of each compound to be tested in DMSO and 10 μL of isopropyl 1-thio-β-D-galactopyranoside (IPTG) at 100 mM. The final concentration of the drug was fixed at 100 μM. The samples were grown overnight at 37 °C and 1400 rpm using a ThermoMixer (Eppendorf, Hamburg, Germany). As negative control (maximal amyloid presence), the same amount of DMSO without the drug was added in the sample. In parallel, non-induced samples (in the absence of IPTG) were also prepared and used as positive controls (non-amyloid presence). In addition, these samples were used to assess the potential intrinsic toxicity of the compounds and to confirm the correct bacterial growth.
(§2) Th-S (T1892) and other chemical reagents were purchased from Sigma (St. Louis, MO). The Th-S stock solution ([…]) was prepared in double-distilled water purified through a Milli-Q system (Millipore, USA). Th-S fluorescence and absorbance were tracked using a DTX 800 plate reader Multimode Detector equipped with a Multimode Analysis Software (Beckman-Coulter, USA). Filters of 430/35 and 485/20 nm were used for the excitation and emission wavelengths, respectively. Filters of 535/25 nm were also used for the absorbance determination. To normalize the Th-S fluorescence as a function of the bacterial concentration, OD600 was obtained using a Shimadzu UV-2401 PC UV–vis spectrophotometer (Shimadzu, Japan). Note that the fluorescence normalization was carried out considering as 100% the Th-S fluorescence of the bacterial cells expressing the peptide or protein in the absence of drug and 0% the Th-S fluorescence of the bacterial cells not expressing the peptide or protein. A minimum of five independent assays (with three replicates for assay) was performed for each tested compound. More assays were performed to obtain a SEM < 5% with a maximum of 10 independent assays.

[2] = molecular target: T2, tau protein (Homo sapiens, UniProt P10636); test: Inhibition of tau aggregation in intact E. coli cells, thioflavin-S; type: cell-based, Escherichia coli; settings: [I] = 100 μM
T2 construct: expressed in transfected cells; host or cells: E. coli BL21 (DE3) with pTARA and pRKT42
T2 sequence (P10636 1-441 isoform P10636-8): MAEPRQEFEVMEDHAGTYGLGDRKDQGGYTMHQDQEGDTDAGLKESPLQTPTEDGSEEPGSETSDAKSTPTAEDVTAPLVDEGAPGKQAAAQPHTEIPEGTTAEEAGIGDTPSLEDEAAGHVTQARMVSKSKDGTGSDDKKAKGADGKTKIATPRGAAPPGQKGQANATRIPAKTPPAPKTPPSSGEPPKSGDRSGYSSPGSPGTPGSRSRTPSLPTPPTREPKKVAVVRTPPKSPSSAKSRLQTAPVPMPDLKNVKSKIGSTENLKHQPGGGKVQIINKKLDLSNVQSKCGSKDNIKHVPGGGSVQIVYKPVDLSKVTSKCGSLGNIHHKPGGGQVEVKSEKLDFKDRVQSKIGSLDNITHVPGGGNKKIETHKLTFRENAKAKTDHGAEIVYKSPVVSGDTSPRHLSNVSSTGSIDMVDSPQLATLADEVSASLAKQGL
Procedure: as §1
E. coli BL21 (DE3) competent cells were transformed with pTARA containing the RNA-polymerase gene of T7 phage (T7RP) under the control of the promoter PBAD. E. coli BL21 (DE3) with pTARA competent cells were transformed with the pRKT42 vector encoding four repeats of the tau protein in two inserts. For overnight culture preparation, 10 mL of the M9 medium containing 0.5% of glucose, 50 μg·mL^–1 of ampicillin, and 12.5 μg·mL^–1 of chloramphenicol was inoculated with a colony of BL21 (DE3) bearing the plasmids to be expressed at 37 °C. For expression of the tau protein, the required volume of overnight culture to obtain 1:500 dilution was added to the fresh M9 minimal medium containing 0.5% of glucose, 50 μg·mL^–1 of ampicillin, 12.5 μg·mL^–1 of chloramphenicol, and 250 μM Th-S. The bacterial culture was grown at 37 °C and 250 rpm. When the cell density reached OD600 = 0.6, an amount of 980 μL of culture was transferred into Eppendorf tubes of 1.5 mL with 10 μL of each compound to be tested in DMSO and 10 μL of arabinose at 25%. The final concentration of the drug was fixed at 100 μM. The samples were grown overnight at 37 °C and 1400 rpm using a ThermoMixer (Eppendorf, Hamburg, Germany). As negative control (maximal presence of tau), the same amount of DMSO without the drug was added in the sample. In parallel, non-induced samples (in the absence of arabinose) were also prepared and used as positive controls (absence of tau). In addition, these samples were used to assess the potential intrinsic toxicity of the compounds and to confirm the correct bacterial growth.
as §2

[3] = molecular target: T3, equine BChE (eqBChE) (Equus caballus, UniProt P81908); test: Inhibition constant and mechanism vs eqBChE, Dixon's method; type: biochemical; settings: for inhibition mechanism on eqBChE: Dixon's plot, best fitting model; for α, eqBChE: mixed inhibition, α > 1 free enzyme, α < 1 enzyme–substrate complex; for Ki: three substrate and five inhibitor concentrations, read-out: Ki ± SD, eqBChE
T3 construct: purchased Sigma-Aldrich (Milan, Italy)
T3 sequence (P81908 whole entry): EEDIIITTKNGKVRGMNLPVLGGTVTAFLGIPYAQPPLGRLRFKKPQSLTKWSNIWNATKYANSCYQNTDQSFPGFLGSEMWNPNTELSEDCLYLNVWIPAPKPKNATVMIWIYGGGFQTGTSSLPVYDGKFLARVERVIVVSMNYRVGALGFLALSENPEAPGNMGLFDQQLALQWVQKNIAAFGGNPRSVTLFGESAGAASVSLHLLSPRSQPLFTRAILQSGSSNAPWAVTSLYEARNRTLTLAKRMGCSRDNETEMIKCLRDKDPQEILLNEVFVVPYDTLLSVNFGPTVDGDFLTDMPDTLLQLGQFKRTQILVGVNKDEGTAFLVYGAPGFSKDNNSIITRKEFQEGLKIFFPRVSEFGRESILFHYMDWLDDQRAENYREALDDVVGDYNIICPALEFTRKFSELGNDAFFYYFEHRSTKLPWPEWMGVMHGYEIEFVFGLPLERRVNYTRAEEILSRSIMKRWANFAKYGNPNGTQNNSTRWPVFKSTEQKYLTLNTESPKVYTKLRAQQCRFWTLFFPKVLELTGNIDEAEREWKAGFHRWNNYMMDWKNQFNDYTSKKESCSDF
Procedure: . The recorded data were analyzed with the enzyme kinetic module of SigmaPlot to find the best fitting model of inhibition using the linear regression analysis. The reference kinetic models used in the regression analysis were competitive, noncompetitive, uncompetitive, and mixed. Each determination was repeated five times, and incorrect values were discarded to reduce the standard deviation within the limit of 5%. In this way, the regression lines obtained have a linear regression coefficient (R^2) higher than 0.95. Dixon’s plots of all tested compounds are reported in the Supporting Information (Figures S1–S12).
18, 22, 25, 26, 28, and 30 toward eqBChE). For each compound, a 500 μM stock solution was prepared in H2O/DMSO or in 10^–2 M HCl and diluted in water to prepare solutions of opportune concentrations to introduce in the cuvette volumes ranging from 30 to 100 μL, to obtain the desired final concentrations. The maximum amount of DMSO used for the preparation of the stock solution was calculated to have a DMSO content in cuvette <0.033%.
Three milliliters of 0.1 M phosphate buffer (pH = 7.4) containing DTNB (0.25 mM) and EeAChE (0.083 UmL^–1) or eqBChE (0.083 UmL^–1) was mixed with the opportune volume of the inhibitor solution to obtain a final inhibitor concentration in cuvette between 90 and 1800 nM. With this solution, the blank was made. […]. The absorbance variations were measured at 412 nm at 25 °C between 0.5 and 1.5 min.
To determine the inhibition constants (Ki) and the inhibition mechanisms, the rates of hydrolysis at three different concentrations of substrate in the presence of five different concentrations of inhibitor were measured.

SMILES | inhibition at 100 µM [1] [%] | inhibition at 100 µM [2] [%] | inhibition mechanism on eqBChE [3] | α, eqBChE [3] | Ki [3] [nM]
Oc1cccc(CNCCCCCCNc2ncccn2)c1O [Compound 20, 3-(((6-(Pyrimidin-2-ylamino)hexyl)amino)methyl)benzene-1,2-diol] | 7.2 | 4.6 | – | – | –
COc1cc(CNCCCCCCNc2ncccn2)ccc1O [Compound 18, 2-Methoxy-4-(((6-(pyrimidin-2-ylamino)hexyl)amino)methyl)phenol] | 1.7 | 1 | mixed | 7.3 | 3030 ± 604
Brc1ccc(CNCCCCCCNc2ccccn2)cc1 [Compound 26, N^1-(4-Bromobenzyl)-N^6-(pyridin-2-yl)hexane-1,6-diamine] | 7.3 | 7.3 | mixed | 0.5 | 3460 ± 1480
COc1cc(CNCCCCCCNc2ccccn2)ccc1O [Compound 30, 2-Methoxy-4-(((6-(pyridin-2-ylamino)hexyl)amino)methyl)phenol] | 13.6 | 12.8 | mixed | 1.4 | 1100 ± 189
c1ccc(CNCCCCCCNc2ccccn2)cc1 [Compound 25, N^1-Benzyl-N^6-(pyridin-2-yl)hexane-1,6-diamine] | 16.8 | 6.7 | mixed | 2.2 | 2370 ± 304
c1ccc(CNCCCCCCNc2ncccn2)cc1 [Compound 13, N^1-Benzyl-N^6-(pyrimidin-2-yl)hexane-1,6-diamine] | 21 | 12.6 | – | – | –
c1ccc(CNCCCCCNc2ncccn2)cc1 [Compound 9, N^1-Benzyl-N^5-(pyrimidin-2-yl)pentane-1,5-diamine] | 5.8 | 2.6 | – | – | –
c1cnc(NCCCCCCNCc2c[nH]c3ccccc23)nc1 [Compound 22, N^1-((1H-Indol-3-yl)methyl)-N^6-(pyrimidin-2-yl)hexane-1,6-diamine] | 9.7 | 6.8 | mixed | 10 | 99 ± 71
Oc1cccc(CNCCCCCCNc2ncccn2)c1 [Compound 19, 3-(((6-(Pyrimidin-2-ylamino)hexyl)amino)methyl)phenol] | 16.7 | 9.9 | – | – | –
COc1ccccc1CNCCCCCCNc1ccccn1 [Compound 28, N^1-(2-Methoxybenzyl)-N^6-(pyridin-2-yl)hexane-1,6-diamine] | 22.3 | 17 | mixed | 0.8 | 3430 ± 701
c1ccc(CNCCCCCNc2ccccn2)cc1 [Compound 23, N^1-Benzyl-N^5-(pyridin-2-yl)pentane-1,5-diamine] | 10.4 | 7 | – | – | –
